Values joined by “and” are separate entries in the source; they are usually repeats but may differ in a detail not shown here. Equal values may be shown once. Read-outs that look alike come from different tables or passages of the source.
Experiments:
[1] = target: T1, BaPDH (prephenate dehydrogenase from Bacillus anthracis) (Bacillus anthracis, UniProt Q81P63); format: binding
[2] = target: T1, BaPDH (prephenate dehydrogenase from Bacillus anthracis); assay: biochemical; format: binding
[3] = target: T1, BaPDH (prephenate dehydrogenase from Bacillus anthracis); assay: biochemical; format: biochemical; details: for Km: 25°C, pH 7.5
[4] = target: AaPDH (prephenate dehydrogenase from Aquifex aeolicus); details: cited from earlier work
[5] = target: arogenate dehydrogenase from cyanobacteria Synechocystis sp.; details: cited from earlier work

T1 sequence (Q81P63 1-378): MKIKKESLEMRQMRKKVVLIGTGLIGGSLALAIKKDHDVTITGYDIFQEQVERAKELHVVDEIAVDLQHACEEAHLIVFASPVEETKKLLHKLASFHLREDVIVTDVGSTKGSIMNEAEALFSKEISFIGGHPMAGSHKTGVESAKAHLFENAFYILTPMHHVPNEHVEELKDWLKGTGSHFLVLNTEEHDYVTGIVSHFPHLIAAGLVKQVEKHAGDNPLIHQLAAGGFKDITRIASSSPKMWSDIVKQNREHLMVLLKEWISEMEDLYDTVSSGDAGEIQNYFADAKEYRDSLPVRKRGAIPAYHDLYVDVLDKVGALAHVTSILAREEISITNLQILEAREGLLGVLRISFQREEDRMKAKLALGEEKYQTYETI

## NC(=O)C1=CN([C@@H]2O[C@H](COP(=O)(O)OP(=O)(O)OC[C@H]3O[C@@H](n4cnc5c(N)ncnc54)[C@H](O)[C@@H]3O)[C@@H](O)[C@H]2O)C=CC1 [NADH]
[1]
  Increase in Tm with the addition of the ligand(s): do not significantly change and ns
  Tm: 43 ± 2 °C

## NC(=O)C1=CN([C@@H]2O[C@H](COP(=O)(O)OP(=O)(O)OC[C@H]3O[C@@H](n4cnc5c(N)ncnc54)[C@H](OP(=O)(O)O)[C@@H]3O)[C@@H](O)[C@H]2O)C=CC1 [NADPH]
[1]
  Increase in Tm with the addition of the ligand(s): do not significantly change and ns
  Tm: 40 ± 1 °C

## NC(=O)c1ccc[n+]([C@@H]2O[C@H](COP(=O)([O-])OP(=O)(O)OC[C@H]3O[C@@H](n4cnc5c(N)ncnc54)[C@H](OP(=O)(O)O)[C@@H]3O)[C@@H](O)[C@H]2O)c1 [NADP^+]
[1]
  Increase in Tm with the addition of the ligand(s): do not significantly change and ns
  Tm: 41 ± 1 °C
[2]
  Kd: No detectable binding

## NC(=O)c1ccc[n+]([C@@H]2O[C@H](COP(=O)([O-])OP(=O)(O)OC[C@H]3O[C@@H](n4cnc5c(N)ncnc54)[C@H](O)[C@@H]3O)[C@@H](O)[C@H]2O)c1 [NAD^+]
[1]
  Increase in Tm with the addition of the ligand(s): does not impart a significant change and ns
  Tm: 41 ± 1 °C
[2]
  Binding sites per protein dimer (N): 0.90 ± 0.01
[3]
  Km: 237 ± 44 µM

## N[C@@H](Cc1ccc(O)cc1)C(=O)O [Tyrosine, L-tyrosine]
[1]
  Tm: 51 ± 1 °C
[2]
  Binding sites per protein dimer (N): 1.002 ± 0.001 and 0.928 ± 0.003
[2]; Kd
  Kd: 0.64 µM and 0.37 µM
[3]
  Ki: 1.47 ± 0.07 µM
  mode of inhibition: non-competitive inhibition
[4]
  Ki: 15.9 ± 1.3 µM
[5]
  Ki: 70 µM

## O=C(O)C(=O)CC1(C(=O)O)C=CC(O)C=C1 (stereo not shown) [prephenate]
[3]
  Km: 58 ± 9 µM

Reference: article PMC7239764 (The FEBS journal, 2019)
